Assay results published in ChEMBL document CHEMBL4138146, “A Schmidt rearrangement-mediated synthesis of novel tetrahydro-benzo[1,4]diazepin-5-ones as potential anticancer and antiprotozoal agents” (Eur J Med Chem, 2017).

Legend:
Assay type in all cases: functional
[1] = tested on: HCT-116; test: Growth inhibition of human HCT116 cells assessed as cell growth at 10 uM incubated for 48 hrs by sulforhodamine B assay relative to control; details: HCT-116, 48 h, read-out: Activity
[2] = tested on: SNB-75; test: Growth inhibition of human SNB75 cells assessed as cell growth at 10 uM incubated for 48 hrs by sulforhodamine B assay relative to control; details: SNB-75, 48 h, read-out: Activity
[3] = tested on: SN12C; test: Growth inhibition of human SN12C cells assessed as cell growth at 10 uM incubated for 48 hrs by sulforhodamine B assay relative to control; details: read-out: Activity
[4] = tested on: NCI-H460; test: Growth inhibition of human NCI-H460 cells assessed as cell growth at 10 uM incubated for 48 hrs by sulforhodamine B assay relative to control; details: NCI-H460, 48 h, read-out: Activity
[5] = tested on: CAKI-1; test: Growth inhibition of human Caki1 cells assessed as cell growth at 10 uM incubated for 48 hrs by sulforhodamine B assay relative to control; details: CAKI-1, 48 h, read-out: Activity
[6] = tested on: HCC 2998; test: Growth inhibition of human HCC2998 cells assessed as cell growth at 10 uM incubated for 48 hrs by sulforhodamine B assay relative to control; details: HCC 2998, 48 h, read-out: Activity
[7] = tested on: SW-620; test: Growth inhibition of human SW620 cells assessed as cell growth at 10 uM incubated for 48 hrs by sulforhodamine B assay relative to control; details: SW-620, 48 h, read-out: Activity
[8] = tested on: NCI-H522; test: Growth inhibition of human NCI-H522 cells assessed as cell growth at 10 uM incubated for 48 hrs by sulforhodamine B assay relative to control; details: NCI-H522, 48 h, read-out: Activity
[9] = tested on: LOX IMVI; test: Growth inhibition of human LOXIMVI cells assessed as cell growth at 10 uM incubated for 48 hrs by sulforhodamine B assay relative to control; details: read-out: Activity
[10] = tested on: RPMI-8226; test: Growth inhibition of human RPMI8226 cells assessed as cell growth at 10 uM incubated for 48 hrs by sulforhodamine B assay relative to control; details: RPMI-8226, 48 h, read-out: Activity
[11] = tested on: HOP-92; test: Growth inhibition of human HOP92 cells assessed as cell growth at 10 uM incubated for 48 hrs by sulforhodamine B assay relative to control; details: HOP-92, 48 h, read-out: Activity
[12] = tested on: KM12; test: Growth inhibition of human KM12 cells assessed as cell growth at 10 uM incubated for 48 hrs by sulforhodamine B assay relative to control; details: KM12, 48 h, read-out: Activity
[13] = tested on: 786-0; test: Growth inhibition of human 786-0 cells assessed as cell growth at 10 uM incubated for 48 hrs by sulforhodamine B assay relative to control; details: 786-0, 48 h, read-out: Activity
[14] = tested on: COLO 205; test: Growth inhibition of human COLO205 cells assessed as cell growth at 10 uM incubated for 48 hrs by sulforhodamine B assay relative to control; details: COLO 205, 48 h, read-out: Activity
[15] = tested on: ACHN; test: Growth inhibition of human ACHN cells assessed as cell growth at 10 uM incubated for 48 hrs by sulforhodamine B assay relative to control; details: read-out: Activity
[16] = tested on: BT-549; test: Growth inhibition of human BT549 cells assessed as cell growth at 10 uM incubated for 48 hrs by sulforhodamine B assay relative to control; details: BT-549, 48 h, read-out: Activity
[17] = tested on: Hs-578T; test: Growth inhibition of human Hs 578T cells assessed as cell growth at 10 uM incubated for 48 hrs by sulforhodamine B assay relative to control; details: read-out: Activity
[18] = tested on: SF-268; test: Growth inhibition of human SF268 cells assessed as cell growth at 10 uM incubated for 48 hrs by sulforhodamine B assay relative to control; details: SF-268, 48 h, read-out: Activity
[19] = tested on: NCI-H226; test: Growth inhibition of human NCI-H226 cells assessed as cell growth at 10 uM incubated for 48 hrs by sulforhodamine B assay relative to control; details: NCI-H226, 48 h, read-out: Activity
[20] = tested on: U-251; test: Growth inhibition of human U251 cells assessed as cell growth at 10 uM incubated for 48 hrs by sulforhodamine B assay relative to control; details: U-251, 48 h, read-out: Activity
[21] = tested on: RXF 393; test: Growth inhibition of human RXF393 cells assessed as cell growth at 10 uM incubated for 48 hrs by sulforhodamine B assay relative to control; details: RXF 393, 48 h, read-out: Activity
[22] = tested on: CCRF-CEM; test: Growth inhibition of human CCRF-CEM cells assessed as cell growth at 10 uM incubated for 48 hrs by sulforhodamine B assay relative to control; details: read-out: Activity
[23] = tested on: DU-145; test: Growth inhibition of human DU145 cells assessed as cell growth at 10 uM incubated for 48 hrs by sulforhodamine B assay relative to control; details: DU-145, 48 h, read-out: Activity
[24] = tested on: OVCAR-5; test: Growth inhibition of human OVCAR5 cells assessed as cell growth at 10 uM incubated for 48 hrs by sulforhodamine B assay relative to control; details: OVCAR-5, 48 h, read-out: Activity
[25] = tested on: HT-29; test: Growth inhibition of human HT-29 cells assessed as cell growth at 10 uM incubated for 48 hrs by sulforhodamine B assay relative to control; details: HT-29, 48 h, read-out: Activity
[26] = tested on: NCI/ADR-RES; test: Growth inhibition of human NCI/ADR-RES cells assessed as cell growth at 10 uM incubated for 48 hrs by sulforhodamine B assay relative to control; details: read-out: Activity
[27] = tested on: NCI-H23; test: Growth inhibition of human NCI-H23 cells assessed as cell growth at 10 uM incubated for 48 hrs by sulforhodamine B assay relative to control; details: NCI-H23, 48 h, read-out: Activity
[28] = tested on: SK-MEL-5; test: Growth inhibition of human SK-MEL-5 cells assessed as cell growth at 10 uM incubated for 48 hrs by sulforhodamine B assay relative to control; details: SK-MEL-5, 48 h, read-out: Activity
[29] = tested on: HOP-62; test: Growth inhibition of human HOP62 cells assessed as cell growth at 10 uM incubated for 48 hrs by sulforhodamine B assay relative to control; details: HOP-62, 48 h, read-out: Activity
[30] = tested on: A498; test: Growth inhibition of human A498 cells assessed as cell growth at 10 uM incubated for 48 hrs by sulforhodamine B assay relative to control; details: A498, 48 h, read-out: Activity
[31] = tested on: NCI-H322M; test: Growth inhibition of human NCI-H322M cells assessed as cell growth at 10 uM incubated for 48 hrs by sulforhodamine B assay relative to control; details: read-out: Activity
[32] = tested on: OVCAR-8; test: Growth inhibition of human OVCAR8 cells assessed as cell growth at 10 uM incubated for 48 hrs by sulforhodamine B assay relative to control; details: OVCAR-8, 48 h, read-out: Activity
[33] = tested on: SK-MEL-2; test: Growth inhibition of human SK-MEL-2 cells assessed as cell growth at 10 uM incubated for 48 hrs by sulforhodamine B assay relative to control; details: SK-MEL-2, 48 h, read-out: Activity

| Compound | growth at 10 µM [1] [%] | growth at 10 µM [2] [%] | growth at 10 µM [3] [%] | growth at 10 µM [4] [%] | growth at 10 µM [5] [%] | growth at 10 µM [6] [%] | growth at 10 µM [7] [%] | growth at 10 µM [8] [%] | growth at 10 µM [9] [%] | growth at 10 µM [10] [%] | growth at 10 µM [11] [%] | growth at 10 µM [12] [%] | growth at 10 µM [13] [%] | growth at 10 µM [14] [%] | growth at 10 µM [15] [%] | growth at 10 µM [16] [%] | growth at 10 µM [17] [%] | growth at 10 µM [18] [%] | growth at 10 µM [19] [%] | growth at 10 µM [20] [%] | other results |
| --- | --- | --- | --- | --- | --- | --- | --- | --- | --- | --- | --- | --- | --- | --- | --- | --- | --- | --- | --- | --- | --- |
| CCCCn1c(=O)c(C2CNC(=O)c3ccccc3N2)cc2ccc(Cl)cc21 (centres undefined) | 73 | 90 | 90.7 | 87 | 72.5 | 111 | 100 | 88.8 | 86.3 | 103 | 95.9 | 98.5 | 107 | 89.6 | 95.4 | 104 | 102 | 105 | 99.6 | 102 | growth at 10 µM [21]: 115%; growth at 10 µM [22]: 103%; growth at 10 µM [23]: 94.9%; growth at 10 µM [24]: 109%; growth at 10 µM [25]: 98.7%; growth at 10 µM [26]: 101%; growth at 10 µM [27]: 93.5%; growth at 10 µM [28]: 97.9%; growth at 10 µM [29]: 94%; growth at 10 µM [30]: 91.3%; growth at 10 µM [31]: 95.7%; growth at 10 µM [32]: 99.3%; growth at 10 µM [33]: 99.6% |
| Cc1cccc2cc(C3CNC(=O)c4ccccc4N3)c(=O)[nH]c12 (centres undefined) | 95.5 | 86.5 | 114 | 109 | 100 | 103 | 110 | 70 | 94.3 | 114 | 94.9 | 99.6 | 111 | 108 | 98.6 | 112 | 105 | 99.6 | 85.6 | 94.5 | growth at 10 µM [21]: 106%; growth at 10 µM [22]: 123%; growth at 10 µM [23]: 109%; growth at 10 µM [24]: 102%; growth at 10 µM [25]: 81.3%; growth at 10 µM [26]: 103%; growth at 10 µM [27]: 98.4%; growth at 10 µM [28]: 102%; growth at 10 µM [29]: 89.6%; growth at 10 µM [30]: 103%; growth at 10 µM [31]: 92%; growth at 10 µM [32]: 103%; growth at 10 µM [33]: 96.9% |
| O=C1NCC(c2cc3ccccc3[nH]c2=O)Nc2ccccc21 (centres undefined) | 92.6 | 99.6 | 99.7 | 105 | 88.1 | 104 | 102 | 88.6 | 98.5 | 106 | 104 | 103 | 100 | 107 | 99.7 | 96.3 | 99.4 | 99.9 | 98.4 | 102 | growth at 10 µM [21]: 90.7%; growth at 10 µM [22]: 110%; growth at 10 µM [23]: 111%; growth at 10 µM [24]: 91.2%; growth at 10 µM [25]: 98.3%; growth at 10 µM [26]: 111%; growth at 10 µM [27]: 97.4%; growth at 10 µM [28]: 97.2%; growth at 10 µM [29]: 90.6%; growth at 10 µM [30]: 104%; growth at 10 µM [31]: 100%; growth at 10 µM [32]: 103%; growth at 10 µM [33]: 100% |
